How the values were obtained:
[1] = molecular target: T1, His tagged full-length PTPN1 protein (Homo sapiens, UniProt P18031); assay: Mobility shift assay (MSA) to determine potency of PTPN1 inhibitors; type: biochemical; settings: 0.5 nM enzyme, 2 μM substrate
T1 construct: made in house
T1 sequence (P18031 with tags, fused parts or gaps): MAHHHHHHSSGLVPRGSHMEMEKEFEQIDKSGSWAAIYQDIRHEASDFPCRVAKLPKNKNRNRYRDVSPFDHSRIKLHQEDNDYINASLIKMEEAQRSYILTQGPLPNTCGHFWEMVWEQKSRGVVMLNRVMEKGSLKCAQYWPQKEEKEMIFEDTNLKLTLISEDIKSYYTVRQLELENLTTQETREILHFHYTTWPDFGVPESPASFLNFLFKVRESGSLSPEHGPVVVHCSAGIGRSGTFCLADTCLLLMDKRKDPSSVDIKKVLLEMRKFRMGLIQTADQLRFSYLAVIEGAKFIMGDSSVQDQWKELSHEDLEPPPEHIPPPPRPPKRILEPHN
Procedure: Compound activity was determined using in house His tagged full-length PTPN1 protein (SEQ ID NO: 3) in an in vitro enzymatic reaction. The enzymatic assay used to determine activity is a mobility shift assay using a LabChip EZ Reader by Caliper Life Sciences. The enzymatic reaction was carried out in assay buffer (50 mM HEPES pH 7.5, 1 mM EGTA, 10 mM EDTA. 0.01% Tween® 20, and 2 mM DTT). The compounds were dispensed on a white 384 well ProxiPlate™ (PerkinElmer Cat #6008289) plate using a Labcyte Echo® liquid handler at varying concentrations (12 point, 1:3 dilution). The enzyme (at 0.5 nM) was incubated with compound for 10 minutes at room temperature. Then the substrate (phosphorylated insulin receptor probe sequence: ((OG488)-(NH—CH2—CH2—O—CH2—CH2—O—CH2—CO)-T-R-D-I-(PY)-E-T-D-Y—Y—R—K—K—NH2) (SEQ ID NO: 2) was added at 2 μM to the plates and incubated for another 10 minutes at room temperature. Finally, a quench solution (water and 4-bromo-3-(2-oxo-2-propoxyethoxy)-5-(3-{[1-(phenylmethanesulfonyl)piperidin-4-yl]amino}phenyl)thiophene-2-carboxylic acid) was added to the plates, which were then run on the EZ Reader (excitation 488 nm, emission 530 nm) to measure % conversion (the amount of phosphorylated substrate which was de-phosphorylated by PTPN1). […] The % inhibition was then used to calculate the IC50 values.

[2] = molecular target: T2, His tagged PTPN2 (TC45) protein (Homo sapiens, UniProt P17706); assay: Mobility shift assay (MSA) to determine potency of PTPN2 inhibitors; type: biochemical; settings: 0.5 nM enzyme, 2 μM substrate
T2 construct: made in house
T2 sequence (P17706 with tags, fused parts or gaps isoform P17706-2): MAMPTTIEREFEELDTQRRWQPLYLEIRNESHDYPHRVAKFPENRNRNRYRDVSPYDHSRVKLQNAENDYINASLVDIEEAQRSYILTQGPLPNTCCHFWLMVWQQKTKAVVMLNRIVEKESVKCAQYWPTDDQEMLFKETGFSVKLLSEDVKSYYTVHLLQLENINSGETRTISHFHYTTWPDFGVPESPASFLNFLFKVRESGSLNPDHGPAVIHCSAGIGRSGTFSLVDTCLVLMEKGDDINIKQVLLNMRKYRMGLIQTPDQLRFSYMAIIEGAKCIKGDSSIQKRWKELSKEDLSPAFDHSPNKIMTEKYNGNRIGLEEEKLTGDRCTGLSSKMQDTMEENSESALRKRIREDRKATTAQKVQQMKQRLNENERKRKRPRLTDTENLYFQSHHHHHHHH
Procedure: Compound activity was determined using in house His tagged PTPN2 (TC45) protein (SEQ ID NO: 1) in an in vitro enzymatic reaction. The enzymatic assay used to determine activity was a mobility shift assay using a LabChip EZ Reader by Caliper Life Sciences. The enzymatic reaction was carried out in assay buffer (50 mM HEPES pH 7.5, 1 mM EGTA, 10 mM EDTA, 0.01% Tween® 20, and 2 mM DTT). The compounds were dispensed on a white 384 well ProxiPlate™ (PerkinElmer Catalog #6008289) plate using the Labcyte Echo at varying concentrations (12 point, 1:3 dilution). The enzyme (at 0.5 nM) was incubated with compound for 10 minutes at room temperature. Then the substrate (phosphorylated insulin receptor probe sequence: ((OG488)-(NH—CH2—CH2—O—CH2—CH2—O—CH2—CO)-T-R-D-I-(PY)-E-T-D-Y—Y—R—K—K—NH2) (SEQ ID NO: 2) was added at 2 μM to the plates and incubated for another 10 minutes at room temperature. Finally, a quench solution (water and 4-bromo-3-(2-oxo-2-propoxyethoxy)-5-(3-{[1-(phenylmethanesulfonyl)piperidin-4-yl]amino}phenyl)thiophene-2-carboxylic acid) was added to the plates, which were then run on the EZ Reader (excitation 488 nm, emission 530 nm) to measure % conversion (the amount of phosphorylated substrate which was de-phosphorylated by PTPN2). […] The % inhibition was then used to calculate the IC50 values.

CC(C)CCCN1CCc2cc(O)c(N3CC(=O)NS3(=O)=O)c(F)c2C1=O [Compound 387, 5-[8-fluoro-6-hydroxy-2-(4-methylpentyl)-1-oxo-1,2,3,4-tetrahydroisoquinolin-7-yl]-1λ^6,2,5-thiadiazolidine-1,1,3-trione]
IC50 [1]: > 100 nM
IC50 [2]: > 100 nM

CC(C)(C)OC(=O)N[C@H]1CC[C@H](CCN2CCc3cc(O)c(N4CC(=O)NS4(=O)=O)c(F)c3C2)CC1 [Compound 300]
IC50 [1]: 1 to 10 nM
IC50 [2]: 1 to 10 nM

O=C1CN(c2c(O)cc3c(c2F)CN(CCCc2ccccc2F)CC3)S(=O)(=O)N1 [Compound 303]
IC50 [1]: 10 to 100 nM
IC50 [2]: 1 to 10 nM

[2H]C([2H])([2H])C([2H])([2H])C([2H])([2H])C([2H])([2H])NC1CCc2cc(O)c(N3CC(=O)NS3(=O)=O)c(F)c2C1 (centres unmarked) [Compound 336, 5-{7-[(^2H9)butylamino]-1-fluoro-3-hydroxy-5,6,7,8-tetrahydronaphthalen-2-yl}-1λ^6,2,5-thiadiazolidine-1,1,3-trione]
IC50 [1]: 1 to 10 nM
IC50 [2]: 1 to 10 nM

O=C1CN(c2c(O)cc3c(c2F)C[C@H](NCc2nccs2)CC3)S(=O)(=O)N1 [Compound 367, 5-[(7R)-1-fluoro-3-hydroxy-7-{[(1,3-thiazol-2-yl)methyl]amino}-5,6,7,8-tetrahydronaphthalen-2-yl]-1λ^6,2,5-thiadiazolidine-1,1,3-trione]
IC50 [1]: 10 to 100 nM
IC50 [2]: 10 to 100 nM

O=C1CN(c2c(O)cc3c(c2F)CN(C2CC4(CNC4)C2)CC3)S(=O)(=O)N1 [Compound 160]
IC50 [1]: 10 to 100 nM
IC50 [2]: 10 to 100 nM

O=C1CN(c2c(O)cc3c(c2F)CCCO3)S(=O)(=O)N1 [Compound 111, 5-(5-fluoro-7-hydroxy-3,4-dihydro-2H-1-benzopyran-6-yl)-1λ^6,2,5-thiadiazolidine-1,1,3-trione]
IC50 [1]: 10 to 100 nM
IC50 [2]: 10 to 100 nM

O=C1CN(c2c(O)cc3c(c2F)CN(CCCC2CCNCC2)CC3)S(=O)(=O)N1 [Compound 219]
IC50 [1]: 10 to 100 nM
IC50 [2]: 10 to 100 nM

O=C1CN(c2c(O)cc3c(c2F)C[C@H](NCCC(F)F)CC3)S(=O)(=O)N1 (single isomer, unassigned) [Compound 260]
IC50 [1]: 1 to 10 nM

O=C1CN(c2c(O)cc3c(c2F)CC(NCCC2COC2)CC3)S(=O)(=O)N1 (centres unmarked) [Compound 330, 5-(1-fluoro-3-hydroxy-7-{[2-(oxetan-3-yl)ethyl]amino}-5,6,7,8-tetrahydronaphthalen-2-yl)-1λ^6,2,5-thiadiazolidine-1,1,3-trione]
IC50 [1]: > 100 nM
IC50 [2]: > 100 nM

O=C1CN(c2c(O)cc3c(c2F)CN(CCC2CCCCC2)CC3)S(=O)(=O)N1 [Compound 179]
IC50 [1]: 10 to 100 nM
IC50 [2]: 10 to 100 nM

O=C1CN(c2c(O)cc3c(c2F)CN(CC2CC(F)(F)C2)CC3)S(=O)(=O)N1 [Compound 162]
IC50 [1]: 10 to 100 nM
IC50 [2]: 1 to 10 nM

O=C1CN(c2c(O)cc3c(c2F)C[C@@H]([C@@H]2CCN(S(=O)(=O)C4CC4)C2)CC3)S(=O)(=O)N1 (single isomer, unassigned) [Compound 137]
IC50 [1]: 1 to 10 nM

C[C@@H](O)CCN[C@@H]1CCc2cc(O)c(N3CC(=O)NS3(=O)=O)c(F)c2C1 (single isomer, unassigned) [Compound 307]
IC50 [1]: 1 to 10 nM

O=C1CN(c2c(O)cc3c(c2F)C[C@@H](NCCCC(F)(F)F)CC3)S(=O)(=O)N1 (single isomer, unassigned) [Compound 147]
IC50 [1]: 10 to 100 nM

CC(C)CCCC1CCc2cc(O)c(N3CC(=O)NS3(=O)=O)c(F)c2C1 (centres unmarked) [Compound 323]
IC50 [1]: 1 to 10 nM

O=C1CN(c2c(O)cc3c(c2F)C[C@H](NCCC2(C(F)(F)F)CC2)CC3)S(=O)(=O)N1 (single isomer, unassigned) [Compound 148]
IC50 [1]: < 1 nM

O=C1CN(c2c(O)cc3c(c2F)C[C@@H]([C@@H]2CCNC2)CC3)S(=O)(=O)N1 (single isomer, unassigned) [Compound 136]
IC50 [1]: 10 to 100 nM

O=C1CN(c2c(O)cc3c(c2F)CN(C[C@H]2C[C@@H]2c2ccncc2)CC3)S(=O)(=O)N1 (racemic) [Compound 248]
IC50 [1]: 10 to 100 nM

O=C1CN(c2c(O)cc3c(c2F)C[C@@H](NCCC2CC2)CC3)S(=O)(=O)N1 (single isomer, unassigned) [Compound 134]
IC50 [1]: 10 to 100 nM

CO[C@H]1CCc2cc(O)c(N3CC(=O)NS3(=O)=O)c(F)c2C1 (single isomer, unassigned) [Compound 109]
IC50 [1]: 10 to 100 nM

CO[C@@H]1CCc2cc(O)c(N3CC(=O)NS3(=O)=O)c(F)c2C1 (single isomer, unassigned) [Compound 104]
IC50 [1]: 10 to 100 nM

CC1=C(CCN[C@@H]2COc3cc(O)c(N4CC(=O)NS4(=O)=O)c(F)c3C2)C(C)(C)CCC1 [Compound 378, 5-[(3S)-5-fluoro-7-hydroxy-3-{[2-(2,6,6-trimethylcyclohex-1-en-1-yl)ethyl]amino}-3,4-dihydro-2H-1-benzopyran-6-yl]-1λ^6,2,5-thiadiazolidine-1,1,3-trione]
IC50 [2]: 10 to 100 nM

O=C1CN(c2c(O)cc3c(c2F)C[C@H](NCCC2CC2)CC3)S(=O)(=O)N1 (single isomer, unassigned) [Compound 133]
IC50 [1]: 1 to 10 nM

O=C1CN(c2c(O)cc3c(c2F)C[C@@H]([C@H]2CCN(S(=O)(=O)C4CC4)C2)CC3)S(=O)(=O)N1 (single isomer, unassigned) [Compound 139]
IC50 [1]: 10 to 100 nM

CC(C)CCN[C@H]1CCc2cc(O)c(N3CC(=O)NS3(=O)=O)c(F)c2C1 (single isomer, unassigned) [Compound 117]
IC50 [1]: 10 to 100 nM

CN(C)CCCNC(=O)N1CCc2cc(O)c(N3CC(=O)NS3(=O)=O)c(F)c2C1 [Compound 285]
IC50 [2]: 10 to 100 nM

O=C1CN(c2c(O)cc3c(c2F)C[C@H](NCCCC(F)F)CC3)S(=O)(=O)N1 (single isomer, unassigned) [Compound 199]
IC50 [1]: < 1 nM

CC(C)CCNC[C@H]1Cc2cc(O)c(N3CC(=O)NS3(=O)=O)c(F)c2C1 (single isomer, unassigned) [Compound 292]
IC50 [1]: 10 to 100 nM

CC(C)(CO)CCN[C@@H]1CCc2cc(O)c(N3CC(=O)NS3(=O)=O)c(F)c2C1 (single isomer, unassigned) [Compound 308]
IC50 [1]: 1 to 10 nM

CC(C)(CCN[C@@H]1CCc2cc(O)c(N3CC(=O)NS3(=O)=O)c(F)c2C1)C(F)(F)F (single isomer, unassigned) [Compound 177]
IC50 [1]: 1 to 10 nM

Cc1cc(CNC(=O)N2CCc3cc(O)c(N4CC(=O)NS4(=O)=O)c(F)c3C2)n(C)n1 [Compound 265]
IC50 [2]: 10 to 100 nM

O=C1CN(c2c(O)cc3c(c2F)C[C@@H](NCCC(F)F)CC3)S(=O)(=O)N1 (single isomer, unassigned) [Compound 259]
IC50 [1]: 10 to 100 nM

CC(C)CCNC[C@@H]1Cc2cc(O)c(N3CC(=O)NS3(=O)=O)c(F)c2C1 (single isomer, unassigned) [Compound 291]
IC50 [1]: 1 to 10 nM

CC(C)(CCN[C@H]1CCc2cc(O)c(N3CC(=O)NS3(=O)=O)c(F)c2C1)C(F)(F)F (single isomer, unassigned) [Compound 176]
IC50 [1]: 10 to 100 nM

O=C1CN(c2c(O)cc3c(c2F)C[C@@H]([C@H]2CCNC2)CC3)S(=O)(=O)N1 (single isomer, unassigned) [Compound 138]
IC50 [1]: 10 to 100 nM

From patent US20250122160A1, “PROTEIN TYROSINE PHOSPHATASE INHIBITORS AND METHODS OF USE THEREOF” (Calico Life Sciences LLC, priority 0001, published 2025)
